Literature values, collected in patent publication US6743775B2, “Slow release formulations comprising anionic polysaccharide” (Alpenstock Holdings Limited, priority 1998, dated 2004).

Conditions: gelatine alone; Schwartz et al., Principles of Surgery 1979

For gelatine, the haemostatic effect is listed as “only displays a haemostatic effect after an addition of thrombin”.
